The term MIC denotes the smallest concentration in the dilution series that meets the test's criterion for growth inhibition. As a reminder, the HC50 is the concentration that lyses half of the red blood cells.

Each structure is given as a SMILES string. Converted amounts (≈) assume the structure as drawn.

MIC and HC50 data for 26 compounds are collected here from ChEMBL document CHEMBL5214900, “Design, Synthesis, and Biological Evaluation of Membrane-Active Bakuchiol Derivatives as Effective Broad-Spectrum Antibacterial Agents” (J Med Chem, 2021).

In series [1] the test system is Staphylococcus aureus. Nature of the series: Antibacterial activity against methicillin-resistant Staphylococcus aureus NCTC10442 assessed as inhibition of bacterial growth incubated for 24 hrs by CLSI based broth dilution method. Type of series: functional. For orientation: Dilution methods test growth across graded concentrations, often in twofold steps.
Series [2] is described as follows: Hemolytic activity in rabbit RBC measured after 1 hrs by multimode reader assay. The following applies: rabbit red blood cells (erythrocytes). Type of series: toxicity, cell-based, Oryctolagus cuniculus, Erythrocyte.
Series [3] has as its system Staphylococcus aureus. The series can be described thus: Antibacterial activity against methicillin-resistant Staphylococcus aureus N315 assessed as inhibition of bacterial growth incubated for 24 hrs by CLSI based broth dilution method. Type of series: functional.
Series [4] concerns Staphylococcus aureus. The series can be described thus: Antibacterial activity against Staphylococcus aureus ATCC 29213 assessed as inhibition of bacterial growth incubated for 24 hrs by CLSI based broth dilution method. Type of series: functional.
The test system of a further series is Escherichia coli. The series can be described thus: Antibacterial activity against Escherichia coli ATCC 25922 assessed as inhibition of bacterial growth incubated for 24 hrs by CLSI based broth dilution method. Type of series: functional.

In the case of `C=C[C@@](C)(/C=C/c1ccc(OCCCCCCCCBr)cc1)CCC=C(C)C`, the MIC in the series with Staphylococcus aureus [1] was above 50 µg/mL; in the series on Staphylococcus aureus [3], above 50 µg/mL; with Staphylococcus aureus [4] it was above 50 µg/mL; in the series with Escherichia coli, above 100 µg/mL. For the same compound, in series [2], the HC50 at 1 h is above 200 µg/mL.
For `C=C[C@@](C)(/C=C/c1ccc(OCCCCN(CC)CC)cc1)CCC=C(C)C`, the MIC with Staphylococcus aureus [1] is 3.12 µg/mL (≈ 8.15 µM); with Staphylococcus aureus [3], 3.12 µg/mL (≈ 8.15 µM); in the series on Staphylococcus aureus [4], 3.12 µg/mL (≈ 8.15 µM); in the series with Escherichia coli it was above 100 µg/mL. Moreover, in series [2], the 50% haemolytic concentration (HC50) at 1 h was found to be 109 µg/mL.
In the case of `C=C[C@@](C)(/C=C/c1ccc(OCCCCN(CCCC)CCCC)cc1)CCC=C(C)C`, the minimal inhibitory concentration (MIC) was above 50 µg/mL with Staphylococcus aureus [1], above 50 µg/mL in the series on Staphylococcus aureus [3], above 50 µg/mL in the series with Staphylococcus aureus [4] and above 100 µg/mL in the series on Escherichia coli. Also, the HC50 at 1 h in series [2] is above 200 µg/mL.
Turning to `C=C[C@@](C)(/C=C/c1ccc(OCCCCCCCCCCBr)cc1)CCC=C(C)C`, the MIC in the series with Staphylococcus aureus [1] is above 50 µg/mL; in the series on Staphylococcus aureus [3] it was above 50 µg/mL; with Staphylococcus aureus [4], above 50 µg/mL; in the series on Escherichia coli, above 100 µg/mL. In series [2], this compound yielded an HC50 at 1 h above 200 µg/mL.
Regarding `C=C[C@@](C)(/C=C/c1ccc(OCCCCN2CCN(C)CC2)cc1)CCC=C(C)C`, the minimal inhibitory concentration (MIC) is 3.12 µg/mL (≈ 7.61 µM) with Staphylococcus aureus [1], 3.12 µg/mL (≈ 7.61 µM) with Staphylococcus aureus [3], 1.56 µg/mL (≈ 3.8 µM) in the series with Staphylococcus aureus [4] and above 100 µg/mL in the series on Escherichia coli. The same compound came in with a concentration for 50% haemolysis (HC50) at 1 h in series [2] of 104 µg/mL.
As for `C=C[C@@](C)(/C=C/c1ccc(OCCCC[N+](C)(CC)CC)cc1)CCC=C(C)C.[I-]`, the minimum inhibitory concentration (MIC) in the series with Staphylococcus aureus [1] amounted to 0.78 µg/mL; in the series on Staphylococcus aureus [3] it was 0.39 µg/mL; in the series on Staphylococcus aureus [4], 1.56 µg/mL; in the series with Escherichia coli, 12.5 µg/mL. Further, in series [2], the HC50 at 1 h is 57 µg/mL.
The corresponding values for `C=C[C@@](C)(/C=C/c1ccc(OCCCCNCC)cc1)CCC=C(C)C` are 1.56 µg/mL (≈ 4.39 µM), 0.78 µg/mL (≈ 2.19 µM), 1.56 µg/mL (≈ 4.39 µM), 12.5 µg/mL (≈ 35.2 µM) and 21.8 µg/mL.
Turning to `C=C[C@@](C)(/C=C/c1ccc(OCCCCNCCCCCCCCCC)cc1)CCC=C(C)C`, the MIC was 50 µg/mL (≈ 107 µM) with Staphylococcus aureus [1], 12.5 µg/mL (≈ 26.7 µM) in the series with Staphylococcus aureus [3], 50 µg/mL (≈ 107 µM) in the series with Staphylococcus aureus [4] and above 100 µg/mL with Escherichia coli. Further, in series [2], the HC50 at 1 h is above 200 µg/mL.
`C=C[C@@](C)(/C=C/c1ccc(OCCCCNCCCC)cc1)CCC=C(C)C`: the MIC turned out to be 1.56 µg/mL (≈ 4.07 µM) with Staphylococcus aureus [1], 1.56 µg/mL (≈ 4.07 µM) with Staphylococcus aureus [3], 1.56 µg/mL (≈ 4.07 µM) with Staphylococcus aureus [4] and 12.5 µg/mL (≈ 32.6 µM) with Escherichia coli. In series [2], the concentration for 50% haemolysis (HC50) at 1 h came to 32.4 µg/mL.
For `C=C[C@@](C)(/C=C/c1ccc(OCCCCCCBr)cc1)CCC=C(C)C`, the MIC in the series with Staphylococcus aureus [1] is above 50 µg/mL; in the series with Staphylococcus aureus [3], above 50 µg/mL; in the series on Staphylococcus aureus [4] it was above 50 µg/mL; with Escherichia coli it was above 100 µg/mL. The compound further registered an HC50 at 1 h in series [2] above 200 µg/mL.
Consider `C=C[C@@](C)(/C=C/c1ccc(OCCCN(CCCC)CCCC)cc1)CCC=C(C)C`, for which the MIC in the series on Staphylococcus aureus [1] was above 50 µg/mL; in the series on Staphylococcus aureus [3], above 50 µg/mL; in the series on Staphylococcus aureus [4] it was above 50 µg/mL; in the series with Escherichia coli it was above 100 µg/mL. In series [2], this compound registered a concentration for 50% haemolysis (HC50) at 1 h above 200 µg/mL.
Take `C=C[C@@](C)(/C=C/c1ccc(OCCCCNCCSC)cc1)CCC=C(C)C`: the MIC with Staphylococcus aureus [1] is 1.56 µg/mL (≈ 3.88 µM); in the series on Staphylococcus aureus [3], 0.78 µg/mL (≈ 1.94 µM); in the series on Staphylococcus aureus [4], 0.78 µg/mL (≈ 1.94 µM); in the series with Escherichia coli, 50 µg/mL (≈ 124 µM). This compound returned an HC50 at 1 h in series [2] of 32.5 µg/mL.
In the case of `C=C[C@@](C)(/C=C/c1ccc(OCCCCNCCCCCCCC)cc1)CCC=C(C)C`, the MIC is 3.12 µg/mL (≈ 7.11 µM) in the series on Staphylococcus aureus [1], 1.56 µg/mL (≈ 3.55 µM) in the series on Staphylococcus aureus [3], 6.25 µg/mL (≈ 14.2 µM) in the series with Staphylococcus aureus [4] and above 100 µg/mL in the series on Escherichia coli. The HC50 at 1 h in series [2] was above 200 µg/mL.
In the case of `C=C[C@@](C)(/C=C/c1ccc(OCCCN(C)C)cc1)CCC=C(C)C`, the MIC with Staphylococcus aureus [1] is 6.25 µg/mL (≈ 18.3 µM); in the series with Staphylococcus aureus [3], 6.25 µg/mL (≈ 18.3 µM); in the series with Staphylococcus aureus [4], 6.25 µg/mL (≈ 18.3 µM); in the series on Escherichia coli it was above 100 µg/mL. Further, in series [2], the HC50 at 1 h amounted to 88.5 µg/mL.
In the case of `C=C[C@@](C)(/C=C/c1ccc(OCCCCCCN(CC)CC)cc1)CCC=C(C)C`, the minimal inhibitory concentration (MIC) was 1.56 µg/mL (≈ 3.79 µM) with Staphylococcus aureus [1], 0.78 µg/mL (≈ 1.89 µM) with Staphylococcus aureus [3], 3.12 µg/mL (≈ 7.59 µM) with Staphylococcus aureus [4] and above 100 µg/mL in the series on Escherichia coli. For the same compound, the HC50 at 1 h in series [2] stood at 65 µg/mL.
For `C=C[C@@](C)(/C=C/c1ccc(OCCCCN(C)C)cc1)CCC=C(C)C`, the minimal inhibitory concentration (MIC) turned out to be 3.12 µg/mL (≈ 8.79 µM) in the series on Staphylococcus aureus [1], 1.56 µg/mL (≈ 4.39 µM) with Staphylococcus aureus [3], 1.56 µg/mL (≈ 4.39 µM) with Staphylococcus aureus [4] and 50 µg/mL (≈ 141 µM) in the series with Escherichia coli. Also, the HC50 at 1 h in series [2] amounted to 41.7 µg/mL.
Turning to `C=C[C@@](C)(/C=C/c1ccc(OCCCCCCCCCCN(CC)CC)cc1)CCC=C(C)C`, the minimal inhibitory concentration (MIC) in the series on Staphylococcus aureus [1] was 3.13 µg/mL (≈ 6.68 µM); in the series on Staphylococcus aureus [3] it was 3.12 µg/mL (≈ 6.68 µM); with Staphylococcus aureus [4] it was 12.5 µg/mL (≈ 26.7 µM); in the series with Escherichia coli it was above 100 µg/mL. Moreover, the HC50 at 1 h in series [2] is above 200 µg/mL.
The corresponding values for `C=C[C@@](C)(/C=C/c1ccc(OCCCC[N+](C)(CCCC)CCCC)cc1)CCC=C(C)C.[I-]` are 0.39 µg/mL, 0.78 µg/mL, 1.56 µg/mL, 12.5 µg/mL and 40.6 µg/mL.
The corresponding values for `C=C[C@@](C)(/C=C/c1ccc(OCCCN(CC)CC)cc1)CCC=C(C)C` are 3.12 µg/mL (≈ 8.46 µM), 3.12 µg/mL (≈ 8.46 µM), 3.12 µg/mL (≈ 8.46 µM), above 100 µg/mL and 102 µg/mL.
The corresponding values for `C=C[C@@](C)(/C=C/c1ccc(OCCCBr)cc1)CCC=C(C)C` are above 50 µg/mL, above 50 µg/mL, above 50 µg/mL, above 100 µg/mL and above 200 µg/mL.
`C=C[C@@](C)(/C=C/c1ccc(OCCCCNCCCCCC)cc1)CCC=C(C)C`: the minimal inhibitory concentration (MIC) in the series on Staphylococcus aureus [1] came to 1.56 µg/mL (≈ 3.79 µM); in the series on Staphylococcus aureus [3] it was 0.78 µg/mL (≈ 1.89 µM); in the series with Staphylococcus aureus [4] it was 1.56 µg/mL (≈ 3.79 µM); with Escherichia coli, 100 µg/mL (≈ 243 µM). The same compound had an HC50 at 1 h in series [2] of 120 µg/mL.
Regarding `C=C[C@@](C)(/C=C/c1ccc(OCCCCCCCCN(CC)CC)cc1)CCC=C(C)C`, the minimum inhibitory concentration (MIC) was 1.56 µg/mL (≈ 3.55 µM) in the series with Staphylococcus aureus [1], 1.56 µg/mL (≈ 3.55 µM) with Staphylococcus aureus [3], 3.12 µg/mL (≈ 7.11 µM) in the series on Staphylococcus aureus [4] and above 100 µg/mL in the series on Escherichia coli. Moreover, the HC50 at 1 h in series [2] was determined as 83.5 µg/mL.
Take `C=C[C@@](C)(/C=C/c1ccc(OCCCC[N+](C)(C)C)cc1)CCC=C(C)C.[I-]`: the minimum inhibitory concentration (MIC) in the series with Staphylococcus aureus [1] was determined as 0.78 µg/mL; in the series with Staphylococcus aureus [3], 0.78 µg/mL; with Staphylococcus aureus [4], 0.78 µg/mL; with Escherichia coli, 6.25 µg/mL. In series [2], this compound yielded an HC50 at 1 h of 34.2 µg/mL.
`C=C[C@@](C)(/C=C/c1ccc(OCCCCBr)cc1)CCC=C(C)C`: the MIC with Staphylococcus aureus [1] was above 50 µg/mL; with Staphylococcus aureus [3] it was above 50 µg/mL; in the series on Staphylococcus aureus [4], above 50 µg/mL; in the series on Escherichia coli it was above 100 µg/mL. In series [2], this compound returned a 50% haemolytic concentration (HC50) at 1 h above 200 µg/mL.
As for `C=C[C@@](C)(/C=C/c1ccc(OCCCCN2CCCC2)cc1)CCC=C(C)C`, the minimum inhibitory concentration (MIC) with Staphylococcus aureus [1] is 1.56 µg/mL (≈ 4.09 µM); with Staphylococcus aureus [3], 1.56 µg/mL (≈ 4.09 µM); with Staphylococcus aureus [4] it was 1.56 µg/mL (≈ 4.09 µM); in the series with Escherichia coli, above 100 µg/mL. This compound also registered a 50% haemolytic concentration (HC50) at 1 h in series [2] of 58.2 µg/mL.
Take `C=C[C@@](C)(/C=C/c1ccc(OCCCCN(Cc2ccccn2)Cc2ccccn2)cc1)CCC=C(C)C`: the MIC in the series on Staphylococcus aureus [1] was 1.56 µg/mL (≈ 3.06 µM); with Staphylococcus aureus [3] it was 1.56 µg/mL (≈ 3.06 µM); in the series with Staphylococcus aureus [4] it was 3.12 µg/mL (≈ 6.13 µM); with Escherichia coli, above 100 µg/mL. Moreover, in series [2], the HC50 at 1 h is above 200 µg/mL.
